Consider one molecule from ChEMBL document CHEMBL3887002, “Biaryl ether sulfonamides and their use as therapeutic agents” (2016).

The target in the experiment is Sodium channel protein type 9 subunit alpha (Homo sapiens, UniProt Q15858). In words: Electrophysiological Assay (In vitro Assay): Patch voltage clamp electrophysiology allows for the direct measurement and quantification of block of voltage-gated sodium channels (Nav's), and allows the determination of the time- and voltage-dependence of block which has been interpreted as differential binding to the resting, open, and inactivated states of the sodium channel (Hille, B., Journal of General Physiology (1977), 69: 497-515).The following patch voltage clamp electrophysiology studies were performed on representative compounds of the invention using human embryonic kidney cells (HEK), permanently transfected with an expression vector containing the full-length cDNA coding for the desired human sodium channel α-subunit, grown in culture media containing 10% FBS, 1% PSG, and 0.5 mg/mL G418 at 37° C. with 5% CO2. […] Nav1.7 and Nav1.5 cDNAs (NM_00297. It is filed as cell-based, HEK293.

The structures appear in SMILES notation.

Sequence of Sodium channel protein type 9 subunit alpha (Q15858 whole entry): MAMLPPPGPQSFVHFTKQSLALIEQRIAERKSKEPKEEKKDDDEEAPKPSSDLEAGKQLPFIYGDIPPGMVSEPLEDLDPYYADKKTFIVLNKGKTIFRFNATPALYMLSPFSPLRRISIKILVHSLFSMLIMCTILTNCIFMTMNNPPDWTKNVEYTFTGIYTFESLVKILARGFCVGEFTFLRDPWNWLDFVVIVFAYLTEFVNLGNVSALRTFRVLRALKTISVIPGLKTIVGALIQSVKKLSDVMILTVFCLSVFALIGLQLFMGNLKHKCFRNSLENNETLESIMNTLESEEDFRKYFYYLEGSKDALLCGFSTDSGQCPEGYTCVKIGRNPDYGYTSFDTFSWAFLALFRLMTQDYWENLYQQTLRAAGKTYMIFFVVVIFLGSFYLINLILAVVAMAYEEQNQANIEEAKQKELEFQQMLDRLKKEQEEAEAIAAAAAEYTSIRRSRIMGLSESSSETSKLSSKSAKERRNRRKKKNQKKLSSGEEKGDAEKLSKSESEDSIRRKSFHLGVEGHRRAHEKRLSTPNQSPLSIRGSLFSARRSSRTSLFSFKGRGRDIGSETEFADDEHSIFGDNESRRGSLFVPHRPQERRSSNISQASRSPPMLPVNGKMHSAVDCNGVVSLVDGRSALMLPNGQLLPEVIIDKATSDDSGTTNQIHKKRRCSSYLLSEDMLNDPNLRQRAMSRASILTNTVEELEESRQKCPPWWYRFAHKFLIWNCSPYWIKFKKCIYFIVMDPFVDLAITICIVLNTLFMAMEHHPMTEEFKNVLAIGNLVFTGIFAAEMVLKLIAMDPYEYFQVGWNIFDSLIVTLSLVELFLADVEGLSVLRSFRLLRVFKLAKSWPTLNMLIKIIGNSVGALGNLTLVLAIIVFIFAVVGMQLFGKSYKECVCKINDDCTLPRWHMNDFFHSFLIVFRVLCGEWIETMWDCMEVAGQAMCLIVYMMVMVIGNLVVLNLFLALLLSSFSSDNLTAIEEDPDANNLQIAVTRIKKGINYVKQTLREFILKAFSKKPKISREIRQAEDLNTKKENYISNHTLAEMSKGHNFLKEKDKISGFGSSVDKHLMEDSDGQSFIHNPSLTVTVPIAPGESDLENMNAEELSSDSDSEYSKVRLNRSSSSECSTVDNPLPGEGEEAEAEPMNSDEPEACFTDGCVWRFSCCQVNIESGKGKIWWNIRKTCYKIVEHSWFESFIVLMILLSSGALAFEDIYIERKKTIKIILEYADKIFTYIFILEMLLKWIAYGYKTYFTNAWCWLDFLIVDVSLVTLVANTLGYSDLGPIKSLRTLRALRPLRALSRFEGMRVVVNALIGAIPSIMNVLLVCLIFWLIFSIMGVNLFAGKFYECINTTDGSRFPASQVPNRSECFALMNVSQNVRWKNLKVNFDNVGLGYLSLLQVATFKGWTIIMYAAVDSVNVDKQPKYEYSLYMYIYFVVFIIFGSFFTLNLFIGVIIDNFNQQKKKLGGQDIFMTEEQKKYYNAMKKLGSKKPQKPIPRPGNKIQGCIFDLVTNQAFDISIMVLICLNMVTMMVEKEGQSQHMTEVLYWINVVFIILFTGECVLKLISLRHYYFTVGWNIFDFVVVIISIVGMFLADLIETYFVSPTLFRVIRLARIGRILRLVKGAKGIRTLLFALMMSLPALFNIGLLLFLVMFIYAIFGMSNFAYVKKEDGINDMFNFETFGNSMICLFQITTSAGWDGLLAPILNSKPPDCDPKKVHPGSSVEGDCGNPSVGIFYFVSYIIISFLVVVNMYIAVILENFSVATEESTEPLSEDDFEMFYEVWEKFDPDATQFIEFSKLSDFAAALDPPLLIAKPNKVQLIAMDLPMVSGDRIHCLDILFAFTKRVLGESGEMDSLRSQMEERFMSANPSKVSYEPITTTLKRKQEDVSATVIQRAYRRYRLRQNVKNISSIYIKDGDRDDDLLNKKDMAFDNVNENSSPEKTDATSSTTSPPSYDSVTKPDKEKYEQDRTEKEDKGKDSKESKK

`O=S(=O)(Nc1ncccc1F)c1cc(F)c(Oc2ccc(Cl)cc2-c2cccc3nccn23)cc1F`: the 50% inhibitory concentration (IC50) – broadly, the concentration that gives 50% inhibition – came out at 23.2 nM.
